# According to publication PMC11424460, “Inhibitory effects of calcium channel blockers nisoldipine and nimodipine on ivacaftor metabolism and their underlying mechanism” (Frontiers in Pharmacology, 2024):
# Test system: ivacaftor metabolism in rat liver microsomes (RLM)
# Test: Screening of 79 drugs (100 μM) for inhibition of ivacaftor metabolism in RLM incubation
# Format: in vitro ADME
# Conditions: each drug 100 μM, 0.3 mg/mL RLM
# Procedure: The supernatants were centrifuged at 100,000 × g for 1 h, and the pellets were resuspended with cold […] PBS. Protein concentrations were determined by Bradford Protein Assay Kit (Thermo Scientific, Waltham, MA, United States).
# This system was made up of 200 μL of incubation solution consisting of 0.3 mg/mL RLM or 0.4 mg/mL HLM, 1.0 mM NADPH, pH 7.4 PBS and ivacaftor. […] The solution should be pre-incubated at 37°C for 5 min before adding NADPH. Following the addition of NADPH, the mixture should be incubated for 40 min. The reaction should then be stopped at −80°C. After the enzyme reaction was completed, 20 μL of 500 ng/mL IS solution and 400 μL acetonitrile (protein precipitating agent) were added to the mixture. The mixture was vortexed for 2 min and then centrifuged at 13,000 rpm for 10 min. After centrifugation, 100 μL of the supernatant was quantified using UPLC-MS/MS.
# Each drug was used at a concentration of 100 μM as the inhibitor. The culture system was 200 μL and included 0.3 mg/mL RLM, 1.0 mM NADPH, PBS, ivacaftor, and inhibitor. The reaction procedure was the same as the enzyme reaction mentioned above Section 2.2.
row,Compound,"Metabolic rate (Mean ± SD, % of control)"
1,CCCCc1oc2ccccc2c1C(=O)c1cc(I)c(OCCN(CC)CC)c(I)c1 [Amiodarone],5.73 ± 0.85 % of control
2,Oc1cc(O)c2c(c1)O[C@H](c1ccc(O)c(O)c1)[C@H](O)C2 [Epicatechin],100.31 ± 2.66 % of control
3,COC(=O)C1=C(C)NC(C)=C(C(=O)OC(C)(C)CN(C)CCC(c2ccccc2)c2ccccc2)C1c1cccc([N+](=O)[O-])c1 (stereo not drawn) [Lercanidipine],26.70 ± 7.18 % of control
4,CC1(C)O[C@H]2CC(=O)OC[C@]23[C@H]2CC[C@@]4(C)[C@H](c5ccoc5)OC(=O)[C@H]5O[C@]54[C@]2(C)C(=O)C[C@@H]13 [Limonin],19.90 ± 0.36 % of control
5,C[C@@H]1O[C@@H](O[C@H]2[C@H](Oc3cc(O)c4c(c3)O[C@H](c3ccc(O)cc3)CC4=O)O[C@H](CO)[C@@H](O)[C@@H]2O)[C@H](O)[C@H](O)[C@H]1O [Naringin],100.87 ± 17.42 % of control
6,O=C(O)Cc1ccc(O)cc1 [2-(4-Hydroxyphenyl) acetic acid],101.32 ± 0.94 % of control
7,O=C1CCC[C@@H]2[C@H]3CCCN4CCC[C@H](CN12)[C@@H]34 [Sophoridine],109.11 ± 5.90 % of control
8,O=C(O)c1cc(O)c(O)c(O)c1 [Gallic acid],95.98 ± 6.77 % of control
9,CC[C@H](C)C(=O)O[C@H]1C[C@@H](C)C=C2C=C[C@H](C)[C@H](CC[C@@H]3C[C@@H](O)CC(=O)O3)[C@H]21 [Lovastatin],17.75 ± 0.36 % of control
10,COc1ccc2cc1Oc1ccc(cc1)C[C@H]1c3cc(c(OC)cc3CCN1C)Oc1c(OC)c(OC)cc3c1[C@H](C2)N(C)CC3 [Tetrandrine],71.96 ± 16.27 % of control
11,COc1cc2cc(Oc3ccc4ccc(=O)oc4c3)c(=O)oc2cc1O [Daphnoretin],69.60 ± 0.85 % of control
12,O=C1CCC[C@@H]2[C@H]3CCCN4CCC[C@@H](CN12)[C@@H]34 [Matrine],80.23 ± 12.45 % of control
13,CN1C(C(=O)Nc2ccccn2)=C(O)c2sc(Cl)cc2S1(=O)=O [Lornoxicam],79.39 ± 3.06 % of control
14,COc1cc(C2Oc3cc([C@H]4Oc5cc(O)cc(O)c5C(=O)[C@@H]4O)ccc3OC2CO)ccc1O (stereo partly drawn) [Silibinin],54.73 ± 1.11 % of control
15,O=C(/C=C/C=C/c1ccc2c(c1)OCO2)N1CCCCC1 [Piperine],203.66 ± 9.93 % of control
16,O=C(NC[C@H]1CN(c2ccc(N3CCOCC3=O)cc2)C(=O)O1)c1ccc(Cl)s1 [Rivaroxaban],85.62 ± 0.92 % of control
17,CCCNCC(O)COc1ccccc1C(=O)CCc1ccccc1 (stereo not drawn) [Propafenone],54.95 ± 0.92 % of control
18,CC(C)=CC[C@@H](O)C1=CC(=O)c2c(O)ccc(O)c2C1=O [Shikonin],41.65 ± 3.13 % of control
19,O=c1c(O)c(-c2ccc(O)c(O)c2)oc2cc(O)ccc12 [Fisetin],44.37 ± 1.28 % of control
20,CCOc1ccc(Cc2cc([C@]34OC[C@](CO)(O3)[C@@H](O)[C@H](O)[C@H]4O)ccc2Cl)cc1 [PF-04971729],92.72 ± 3.41 % of control
21,C=C1CC[C@@H]2[C@](C)(CO)[C@H](O)CC[C@@]2(C)[C@@H]1C/C=C1/C(=O)OC[C@H]1O [Andrographolide],81.58 ± 1.22 % of control
22,O=C1C[C@@H](c2ccc(O)cc2)Oc2cc(O)cc(O)c21 [Naringenin],42.57 ± 2.14 % of control
23,CCCCc1oc2ccc(NS(C)(=O)=O)cc2c1C(=O)c1ccc(OCCCN(CCCC)CCCC)cc1 [Dronedarone],4.76 ± 0.94 % of control

row,Compound,"Metabolic rate (Mean ± SD, % of control)"
1,O=C(O[C@@H]1Cc2c(O)cc(O)cc2O[C@@H]1c1cc(O)c(O)c(O)c1)c1cc(O)c(O)c(O)c1 [(-)-Epigallocatechin gallate],72.21 ± 13.75 % of control
2,CCc1cccc2c3c([nH]c12)C(CC)(CC(=O)O)OCC3 (stereo not drawn) [Etodolac],98.19 ± 1.07 % of control
3,CC(C)N(CCCCOCC(=O)NS(C)(=O)=O)c1cnc(-c2ccccc2)c(-c2ccccc2)n1 [Selexipag],28.78 ± 2.21 % of control
4,O=c1cc(-c2ccc(O)c(O)c2)oc2cc(O)cc(O)c12 [Luteolin],95.78 ± 7.92 % of control
5,O=c1c(-c2ccc(O)cc2)coc2cc(O)cc(O)c12 [Genistein],50.39 ± 12.01 % of control
6,CCCc1nc2c(C)cc(-c3nc4ccccc4n3C)cc2n1Cc1ccc(-c2ccccc2C(=O)O)cc1 [Telmisartan],14.98 ± 1.00 % of control
7,O=C(O)/C=C/c1ccc(O)c(O)c1 [Caffeic acid],106.41 ± 1.94 % of control
8,COc1ccc2cc1Oc1ccc(cc1)C[C@H]1c3cc(c(OC)cc3CCN1C)Oc1c(O)c(OC)cc3c1[C@H](C2)N(C)CC3 [Fangchinoline],29.41 ± 4.61 % of control
9,O=c1c(-c2ccc(O)cc2)coc2cc(O)ccc12 [Daidzein],105.78 ± 2.90 % of control
10,Cc1ccc(Sc2ccccc2N2CCNCC2)c(C)c1 [Vortioxetine],3.17 ± 0.50 % of control
11,Oc1ccc(/C=C/c2cc(O)cc(O)c2)cc1 [Resveratrol],18.69 ± 0.46 % of control
12,COc1ccccc1OCCNCC(O)COc1cccc2[nH]c3ccccc3c12 (stereo not drawn) [Carvedilol],12.87 ± 0.57 % of control
13,CN(C)[C@@H](CCOc1cccc2ccccc12)c1ccccc1 [Dapoxetine],19.76 ± 0.64 % of control
14,COc1c(O)cc2c(c1O)[C@@H]1O[C@H](CO)[C@@H](O)[C@H](O)[C@H]1OC2=O [Bergenin],142.63 ± 33.46 % of control
15,C[N+](C)(C)CC(=O)O [Betaine],100.10 ± 4.97 % of control
16,COc1ccc([C@@H]2CC(=O)c3c(O)cc(O[C@@H]4O[C@H](CO[C@@H]5O[C@@H](C)[C@H](O)[C@@H](O)[C@H]5O)[C@@H](O)[C@H](O)[C@H]4O)cc3O2)cc1O [Hesperiden],104.17 ± 3.09 % of control
17,C=C[C@H]1C[N@@]2CC[C@H]1C[C@@H]2[C@@H](O)c1ccnc2ccc(OC)cc12 [Quinidine],37.44 ± 4.20 % of control
18,COc1cc(/C=C/C(=O)CC(=O)/C=C/c2ccc(O)c(OC)c2)ccc1O [Curcumin],8.19 ± 0.34 % of control
19,COc1ccc([C@@H]2Sc3ccccc3N(CCN(C)C)C(=O)[C@@H]2OC(C)=O)cc1 [Dilthiazem],26.04 ± 1.00 % of control
20,O=C(O)[C@H]1O[C@@H](Oc2cc3oc(-c4ccccc4)cc(=O)c3c(O)c2O)[C@H](O)[C@@H](O)[C@@H]1O [Baicalin],50.95 ± 0.08 % of control
21,COc1ccc2cc3[n+](cc2c1OC)CCc1cc2c(cc1-3)OCO2 [Berberine],109.72 ± 0.72 % of control
22,CSCCNc1nc(SCCC(F)(F)F)nc2c1ncn2[C@@H]1O[C@H](COP(=O)(O)OP(=O)(O)C(Cl)(Cl)P(=O)(O)O)[C@@H](O)[C@H]1O [cangrelor],105.13 ± 0.21 % of control
